Measurements as given in US20260034119A1, “5-METHOXY-N,N-[…][…], THEIR […], AND METHODS FOR TREATMENT OF NEUROLOGICAL, […], AND SUBSTANCE USE DISORDERS” (priority 2023, published 2026).
Changes are numbered by the printed parent chain. Several values for one entry are separate records, joined by “and”; a condition that tells them apart may be missing. Identical values can stand only once. Entries after “also recorded” stand apart in the source; their conditions may differ. Like-named read-outs stand apart in the source and are kept apart here.

Key:
MAO-A = target: T1, MAO-A (Homo sapiens, UniProt P21397); assay: MAO-A activity (metabolism of compound); conditions: versus the DMT analogs
T1 sequence (P21397 1-527): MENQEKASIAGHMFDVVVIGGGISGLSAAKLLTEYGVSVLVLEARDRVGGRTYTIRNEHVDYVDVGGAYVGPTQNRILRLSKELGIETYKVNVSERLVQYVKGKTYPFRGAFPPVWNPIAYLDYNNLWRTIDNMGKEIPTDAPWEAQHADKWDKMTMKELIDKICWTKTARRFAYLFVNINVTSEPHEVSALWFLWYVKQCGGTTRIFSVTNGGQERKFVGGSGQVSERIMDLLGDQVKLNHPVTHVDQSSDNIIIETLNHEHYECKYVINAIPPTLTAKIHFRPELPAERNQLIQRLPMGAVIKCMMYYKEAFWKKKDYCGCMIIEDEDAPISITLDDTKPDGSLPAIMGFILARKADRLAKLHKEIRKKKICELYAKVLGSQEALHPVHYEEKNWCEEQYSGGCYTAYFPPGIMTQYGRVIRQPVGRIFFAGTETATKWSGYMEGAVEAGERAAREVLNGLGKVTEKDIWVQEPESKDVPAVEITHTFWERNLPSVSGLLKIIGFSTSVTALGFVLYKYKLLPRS

5-HT1A N386V = target: T2, 5-HT1A N386V (Homo sapiens, UniProt P08908, N386V); assay: Gi1 BRET at mutant 5-HT1A N386V; type: cell-based
T2 construct: expressed in transfected cells; host or cells: HEK293-T
T2 sequence (P08908 1-422 N386V): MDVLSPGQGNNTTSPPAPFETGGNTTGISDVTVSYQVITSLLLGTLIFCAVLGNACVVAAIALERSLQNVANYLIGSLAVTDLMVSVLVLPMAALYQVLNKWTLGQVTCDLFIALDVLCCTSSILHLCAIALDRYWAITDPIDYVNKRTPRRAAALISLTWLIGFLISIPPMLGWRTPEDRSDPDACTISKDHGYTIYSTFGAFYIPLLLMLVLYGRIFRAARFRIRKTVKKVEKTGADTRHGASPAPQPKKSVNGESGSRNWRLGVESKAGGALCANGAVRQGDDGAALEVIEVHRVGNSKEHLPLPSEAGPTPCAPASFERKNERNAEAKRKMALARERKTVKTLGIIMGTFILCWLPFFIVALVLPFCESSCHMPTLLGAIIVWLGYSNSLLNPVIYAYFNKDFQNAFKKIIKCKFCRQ

5-HT2A [1] = target: T3, 5-HT2A (Homo sapiens, UniProt P28223); assay: cell-based
T3 sequence (P28223 whole entry): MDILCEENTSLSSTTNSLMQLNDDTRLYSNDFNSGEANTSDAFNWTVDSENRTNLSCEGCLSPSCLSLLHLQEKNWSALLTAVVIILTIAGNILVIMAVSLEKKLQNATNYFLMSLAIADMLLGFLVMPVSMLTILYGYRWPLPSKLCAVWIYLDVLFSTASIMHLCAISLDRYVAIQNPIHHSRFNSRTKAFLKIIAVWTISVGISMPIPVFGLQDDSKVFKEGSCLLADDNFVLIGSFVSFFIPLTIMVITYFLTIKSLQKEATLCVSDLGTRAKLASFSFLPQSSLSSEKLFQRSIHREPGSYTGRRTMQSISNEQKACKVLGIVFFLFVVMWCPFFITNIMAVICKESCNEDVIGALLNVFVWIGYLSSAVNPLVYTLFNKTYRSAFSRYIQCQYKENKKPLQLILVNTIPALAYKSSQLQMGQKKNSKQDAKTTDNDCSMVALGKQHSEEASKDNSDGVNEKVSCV

5-HT2A V366N = target: T4, 5-HT2A V366N (Homo sapiens, UniProt P28223, V366N); assay: Gq BRET at mutant 5-HT2A V366N; type: cell-based
T4 construct: expressed in transfected cells; host or cells: HEK293-T
T4 sequence (P28223 whole entry V366N): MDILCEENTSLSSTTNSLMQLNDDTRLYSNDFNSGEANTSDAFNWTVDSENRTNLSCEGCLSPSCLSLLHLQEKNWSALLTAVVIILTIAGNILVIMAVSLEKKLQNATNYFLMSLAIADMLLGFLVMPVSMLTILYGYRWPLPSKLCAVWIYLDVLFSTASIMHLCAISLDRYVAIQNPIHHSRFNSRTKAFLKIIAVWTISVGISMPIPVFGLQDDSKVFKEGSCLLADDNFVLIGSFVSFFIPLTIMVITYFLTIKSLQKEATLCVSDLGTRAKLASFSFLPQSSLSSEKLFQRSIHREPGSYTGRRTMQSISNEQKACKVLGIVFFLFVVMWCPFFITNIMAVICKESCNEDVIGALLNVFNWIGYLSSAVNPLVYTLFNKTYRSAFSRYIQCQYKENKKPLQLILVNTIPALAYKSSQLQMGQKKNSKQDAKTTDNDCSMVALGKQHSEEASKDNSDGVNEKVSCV

5-HT1A A365N = target: T5, 5-HT1A A365N (Homo sapiens, UniProt P08908, A365N); assay: Gi1 BRET at mutant 5-HT1A A365N; type: cell-based
T5 construct: expressed in transfected cells; host or cells: HEK293-T
T5 sequence (P08908 1-422 A365N): T2 sequence (P08908 1-422 N386V) with A365N, V386N

5-HT1A [2] = target: T6, 5-HT1A (Homo sapiens, UniProt P08908); assay: BRET signaling assay: 5-HT1A-mediated activation of heterotrimeric Gi1 (TRUPATH, HEK293-T)
T6 sequence (P08908 whole entry): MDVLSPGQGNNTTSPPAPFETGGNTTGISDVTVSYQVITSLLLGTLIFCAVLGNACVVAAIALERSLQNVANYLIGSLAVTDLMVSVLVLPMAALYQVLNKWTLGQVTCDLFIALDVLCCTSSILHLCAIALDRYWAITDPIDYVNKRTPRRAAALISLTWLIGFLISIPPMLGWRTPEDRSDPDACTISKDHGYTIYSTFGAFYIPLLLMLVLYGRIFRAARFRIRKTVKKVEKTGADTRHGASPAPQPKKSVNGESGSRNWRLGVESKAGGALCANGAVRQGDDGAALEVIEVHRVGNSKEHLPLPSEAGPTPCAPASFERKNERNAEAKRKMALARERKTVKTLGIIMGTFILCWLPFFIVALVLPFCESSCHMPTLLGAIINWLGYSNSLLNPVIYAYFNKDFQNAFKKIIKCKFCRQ

human 5-HT1A = target: T7, human 5-HT1A (Homo sapiens, UniProt P08908); assay: cell-based
T7 sequence (P08908 1-422): T2 sequence (P08908 1-422 N386V) with V386N

5-HT2A [3] = target: T3, 5-HT2A
5-HT2B = 5-HT2B (Homo sapiens, UniProt P41595); assay: IP1 functional assay 5-HT2B; type: cell-based; conditions: for Emax: read-out: 5-HT2B (IP1) Emax (%5-HT), Table 3
Sequence of 5-HT2B (P41595 whole entry, species assumed): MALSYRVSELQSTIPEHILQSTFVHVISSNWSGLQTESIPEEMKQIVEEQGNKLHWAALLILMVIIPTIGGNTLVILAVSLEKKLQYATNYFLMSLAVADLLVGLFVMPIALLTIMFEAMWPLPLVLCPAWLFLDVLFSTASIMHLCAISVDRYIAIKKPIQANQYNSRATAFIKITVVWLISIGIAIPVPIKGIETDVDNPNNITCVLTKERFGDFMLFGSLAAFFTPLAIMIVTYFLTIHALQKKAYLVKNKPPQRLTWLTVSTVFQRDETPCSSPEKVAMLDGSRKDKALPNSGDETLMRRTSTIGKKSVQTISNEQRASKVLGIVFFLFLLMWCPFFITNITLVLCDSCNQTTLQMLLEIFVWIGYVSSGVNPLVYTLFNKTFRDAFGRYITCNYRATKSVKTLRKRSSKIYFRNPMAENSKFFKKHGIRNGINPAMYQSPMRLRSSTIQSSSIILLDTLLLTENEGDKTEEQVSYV

[4] = Microsomal stability, human liver microsomes; type: in vitro ADME; conditions: versus the DMT analogs
Method: Microsomal incubations were carried out in 96-well plates in 5 aliquots of 30 μL each (one for each time point). Liver microsomal incubation medium comprised of phosphate buffer (100 mM, pH 7.4), MgCl2 (3.3 mM), NADPH (3 mM), glucose-6-phosphate (5.3 mM), glucose-6 phosphate dehydrogenase (0.67 units/ml) with 0.42 mg of liver microsomal protein per ml. In the control reactions the NADPH-cofactor system was substituted with phosphate buffer. Test compounds (2 μM, final solvent concentration 1.6%) were incubated with microsomes at 37° C., shaking at 100 rpm. Each reaction was performed in duplicates. Five time points over 90 minutes were analyzed. The reactions were stopped by adding 5 volumes of methanol containing internal standard to incubation aliquots, followed by protein sedimentation by centrifuging at 5500 rpm for 4 minutes. Supernatants were analyzed using the HPLC system coupled with tandem mass spectrometer. The elimination constant (kel), half-life (t1/2) and intrinsic clearance (Clint) were determined in plot of […] versus time, using linear regression analysis.

5-HT2A [5] = target: T3, 5-HT2A; assay: cell-based; design: expressed in transfected cells; host or cells: HEK293-T; conditions: for Emax: read-out: 5-HT2A (IP1) Emax (%5-HT)
C57BL/6J mice = assay: Social interaction test after chronic social defeat stress (CSDS); conditions: one s.c. administration
5-HT1A [6] = target: T6, 5-HT1A; assay: cell-based
[7] = Human plasma protein binding; type: in vitro ADME
[8] = Mouse plasma protein binding; type: in vitro ADME
[9] = EC50 (nM), Gi1 BRET, 5-HT1A A365N^6.55

Row | Compound | EC50 (5-HT2A [1]; EC50 (nM), Gq BRET, 5-HT2A WT) [nM] | EC50 (5-HT1A A365N; [9]) [nM] | EC50 (5-HT1A [2]; EC50 (nM), Gi1 BRET, 5-HT1A WT) [nM] | EC50 (5-HT2A [1]) [nM] | EC50 (human 5-HT1A) | microsomal stability in human microsomes [4] | EC50 (5-HT1A [6]) [nM] | other results
1 | C=CCN(C)CCc1c[nH]c2ccc(OC)c(F)c12 [4-F, 5-MeO MALT] | – | – | – | – | – | – | – | MAO A metabolism (MAO-A): markedly slower MAO A metabolism versus the DMT analogs
2 | COc1ccc2[nH]cc(CCN3CCCC3)c2c1 [Compound 18, 5-methoxy-N,N-pyrrolidinyl-tryptamine] | 81.5 | 28.9 | 2.13 | – | – | – | – | EC50 (5-HT1A N386V): 24.9 nM; EC50 (5-HT2A V366N): 55.6 nM; selectivity for 5-HT1A>5-HT2A (5-HT1A [2]; 5-HT1A Gi BRET vs 5-HT2A Gq BRET): > 38 fold; EC50 (5-HT1A [2]; Gi BRET EC50): 2.1 nM; increase in 5-HT1A>5-HT2A selectivity (5-HT1A [2]; cyclization of the amine moiety, relative to 5-MeO-DMT): ~38 fold
3 | COc1ccc2[nH]cc(CCN(C)C)c2c1F [Compound 25, 2-(4-fluoro-5-methoxy-1H-indol-3-yl)-N,N-dimethylethane-1-amine] | 86.5 | – | – | 86.5 | 0.186 nM | – | – | EC50 (5-HT1A N386V): 3.71 nM; decrease in potency at 5-HT2A (5-HT2A [3]; relative to 5-MeO-DMT): 3 fold; EC50 (5-HT2A V366N): 392 nM; EC50 (5-HT1A A365N): 20.1 nM; Efficacy as %5HT (SEM) 5-HT1A BRET Gi1 (5-HT1A [2]): 103.5 1.59) %5HT; increase in signaling potency at 5-HT1A (5-HT1A [2]): 14 fold; EC50 (5-HT1A [2]; EC50 (nM)): 1.77 nM; EC50 (5-HT1A [2]; EC50 (nM) 5-HT1A BRET Gi1): 1.77 nM
4 | CCN(C)CCc1c[nH]c2ccc(OC)c(F)c12 [Compound 26, N-ethyl-2-(4-fluoro-5-methoxy-1H-indol-3-yl)-N-methylethan-1-amine] | – | – | – | 99.3 | 0.316 nM | greater stability in human microsomes versus the DMT analogs | 1.77 | EC50 (5-HT2B): 66 nM; Emax (5-HT2B): 39%; EC50 (5-HT2A [5]): 230 nM; Emax (5-HT2A [5]): 90%; general locomotion at the social interaction test (C57BL/6J mice; mice): no effects on general locomotion; corner time (anxiety-like behavior) (C57BL/6J mice; stressed mice): rescued; social interaction deficit induced by chronic social defeat stress (C57BL/6J mice; stressed mice, test 24 hr post drug, listed as 4-F, 5-MeO-MET): rescued; also recorded: rescuing the social interaction deficit
5 | CCCN(C)CCc1c[nH]c2ccc(OC)c(F)c12 [Compound 28, N-(2-(4-fluoro-5-methoxy-1H-indol-3-yl)ethyl)-N-methylpropan-1-amine] | – | – | – | 115 | 0.417 nM | greater stability in human microsomes versus the DMT analogs | 3.06 | EC50 (5-HT2B): 72 nM; Emax (5-HT2B): 47%; EC50 (5-HT2A [5]): 250 nM; Emax (5-HT2A [5]): 106%; MAO A metabolism (MAO-A): markedly slower MAO A metabolism versus the DMT analogs
6 | CCCN(CC)CCc1c[nH]c2ccc(OC)c(F)c12 [Compound 29, N-ethyl-(2-(4-fluoro-5-methoxy-1H-indol-3-yl)ethyl)propan-1-amine] | – | – | – | 155 | 0.151 nM | greater stability in human microsomes versus the DMT analogs | 0.95 | –
7 | C=CCN(C)CCc1c[nH]c2ccc(OC)c(F)c12 [Compound 34, N-(2-(4-fluoro-5-methoxy-1H-indol-3-yl)ethyl)-N-methylprop-2-en-1-amine] | – | – | – | 156 | 2.57 nM | greater stability in human microsomes versus the DMT analogs | 8.41 | –
8 | CN(C)CCc1c[nH]c2ccc(O)c(F)c12 [Compound 40, 3-(2-(dimethylamino)ethyl)-4-fluoro-1H-indol-5-ol] | 7.46 | 5.68 | 1.13 | 7.46 | 0.251 nM | – | 1.13 | –
9 | CSc1ccc2[nH]cc(CCN(C)C)c2c1 [Compound 67, N,N-dimethyl-2-(5-(methylthio)-1H-indol-3-yl)ethan-1-amine] | 30.1 | 30.5 | 11.7 | 30.1 | 2.01 nM | – | 11.7 | EC50 (5-HT1A A365N; pEC50, Gi1 BRET, 5-HT1A A365N^6.55): 30.2 nM
10 | CSc1ccc2[nH]cc(CCN3CCCC3)c2c1 [Compound 69, 5-(methylthio)-3-(2-(pyrrolidin-1-yl)ethyl)-1H-indole] | 175 | 5.08 | 1.05 | 175 | 0.51 nM and 0.501 nM | – | 1.05 | –
11 | CCN(CC)C(=O)[C@@H]1C=C2c3cccc4[nH]cc(c34)C[C@H]2N(C)C1 [LSD, reference compound] | – | – | – | – | – | – | – | Efficacy as %5HT 5-HT2A BRET Gq (5-HT2A [3]; Table 6, commercial ligands): 82.4 %5HT; effect of 5-HT2A V366N mutation on potency and efficacy (5-HT2A V366N; mutant vs wildtype 5-HT2A): increase in signaling efficacy
12 | CC(=O)CC(c1ccccc1)c1c(O)c2ccccc2oc1=O (stereo not drawn) [Warfarin] | – | – | – | – | – | – | – | % Recovery [7]: 108.1%; % Compound remaining at 4 h ([7]; 4 h): 108.8%; % Recovery [8]: 90.9%; % Unbound [8]: 6.4%; fu [8]: 0.064; % Compound remaining at 4 h ([8]; 4 h): 103.3%
